Results from ChEMBL document CHEMBL5727507, “Substituted indole Mcl-1 inhibitors” (2020).

Target: Induced myeloid leukemia cell differentiation protein Mcl-1 (Homo sapiens, UniProt Q07820)
Assay: Fluorescence Polarization Anisotropy Competition Assay: Compound affinity was measured using a fluorescence polarization anisotropy competition assay. Anisotropy measurements were carried out in 384-well, black, flat-bottom plates (Greiner Bio-one, Monroe, N.C., USA).

Sequence of Induced myeloid leukemia cell differentiation protein Mcl-1 (Q07820 whole entry): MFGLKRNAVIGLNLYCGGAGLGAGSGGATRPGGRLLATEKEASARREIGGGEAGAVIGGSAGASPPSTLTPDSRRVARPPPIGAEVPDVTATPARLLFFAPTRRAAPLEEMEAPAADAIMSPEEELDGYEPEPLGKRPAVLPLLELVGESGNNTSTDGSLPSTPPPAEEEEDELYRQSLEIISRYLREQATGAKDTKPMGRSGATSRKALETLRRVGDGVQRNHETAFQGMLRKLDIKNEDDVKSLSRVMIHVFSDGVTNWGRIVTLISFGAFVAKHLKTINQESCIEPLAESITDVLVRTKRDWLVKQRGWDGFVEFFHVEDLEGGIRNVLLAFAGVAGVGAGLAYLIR

Ki [nM]	Structure (SMILES)
< 50	Cc1cc(OCCCc2c(C(=O)N(C)c3ccc(C(=O)O)cc3)[nH]c3c(-c4c(C)nn(C)c4C)c(Cl)ccc23)cc(C)c1Cl
< 50	Cc1cc(OCCCc2c3n(c4c(-c5c(C)nn(C)c5C)c(Cl)ccc24)CCCN(c2ccc(C(=O)O)c4ncccc24)C3=O)cc(C)c1Cl
< 50	Cc1cc(OCCCc2c(C(=O)N3CCN(c4ccc(C(=O)O)cc4)CC3)n(CCN3CCOCC3)c3c(-c4c(C)nn(C)c4C)c(Cl)ccc23)cc(C)c1Cl
< 50	Cc1cc(OCCCc2c3n(c4c(-c5c(C)nn(C)c5C)c(Cl)ccc24)[C@H](C)CN(c2ccc(C(=O)O)c4ncccc24)C3=O)cc(C)c1Cl
< 50	Cc1cc(OCCCc2c(C(=O)NCc3cc(C(=O)O)cc(Cl)n3)[nH]c3c(-c4c(C)nn(C)c4C)cccc23)cc(C)c1Cl

Further lines, the compound ahead of its results:

Structure (SMILES)	Ki [nM]
Cc1cc(OCCCc2c(C(=O)N[C@@H]3CCC[C@@H](C(=O)O)C3)[nH]c3c(-c4c(C)nn(C)c4C)cccc23)cc(C)c1Cl	< 50
Cc1cc(OCCCc2c(C(=O)N[C@H]3CC[C@@H](C(=O)O)CC3)[nH]c3c(-c4c(C)nn(C)c4C)cccc23)cc(C)c1Cl	< 50
Cc1cc(OCCCc2c3n(c4c(-c5c(C)nn(C)c5C)cccc24)CCCN(c2ccnc4c(C(=O)O)cccc24)C3=O)cc(C)c1Cl	< 50
Cc1cc(OCCCc2c3n(c4c(-c5c(C)nn(C)c5C)c(Cl)ccc24)CCCN(c2ccc(C(=O)O)c4c2ccn4C)C3=O)cc(C)c1Cl	< 50
